Measurements reported in patent publication US5928185A, “Iontophoresis device for the transcutaneous delivery of an active principle such as an anionic oligosaccharide” (Sanofi, priority 1995, dated 1999).

How the values were obtained:
[1] = Administration of pentasaccharide sodium salt in minipigs: iontophoresis vs passive, I.V. and subcutaneous; plasma antifactor Xa (Example 3); format: in vivo, minipig (YUCATAN strain)
Experimental: Administration in minipigs of pentasaccharide sodium salt by iontophoresis at a set current density
Specialists consider minipigs of the YUCATAN strain to be an excellent animal model for studying the administration in man of medicaments by iontophoresis. This is because the skin structure of this animal is very similar to that of human skin.
The following tests were carried out on the aforementioned minipig with the aim of comparing the administration of the sodium salt of the pentasaccharide used in the previous examples by iontophoresis with administration by subcutaneous or intravenous injection.
For these tests, pairs of adhesive electrode sets were formed, each pair having a donor electrode assembly formed by a reversible negative electrode (active electrode) in contact with a first reservoir element holding the pentasaccharide to be administered, and a passive electrode assembly formed by a positive electrode (back electrode) in contact with a second reservoir element (receptacle element) holding an indifferent electrolyte.
Referring to the figure, each electrode assembly included a disc 1 of polyethylene foam having an axial cylindrical recess 2, the said disc having an adhesive face 3 and a non-adhesive face 4, each of the said faces having the shape of an annular area with a width of two centimetres. The end 5 of the recess in the disc, on the non-adhesive face side, was closed off by an electrode 6 in the form of a silver disc chlorided on one of its faces, the said disc having a cross-sectional area of 20 cm^2. The chlorided face 7 of the electrode disc is turned towards the interior of the recess. […] The said support disc, having a diameter intermediate between that of the electrode 6 and the disc 1, was bonded onto the non-adhesive face of the latter disc. The recess 2 in the disc 1 was filled with a conductive hydrogel 11 forming the reservoir element. The adhesive face 3 of the disc 1 was coated with a pressure-sensitive adhesive designed to be applied to the skin, the said face 3 and the face 12 adjacent to the reservoir element 11 being initially covered with a peelable non-stick polyester protective film which was removed before application to the skin.
In the donor electrode assembly, the negative electrode (active electrode) of chlorided silver contained a quantity of silver chloride equivalent to 1.8 mAh/cm^2, thus allowing the electrode to sustain the quantity of current flowing through the electrodes over the duration of the iontophoretic treatment, namely 1.2 mAh/cm^2. The reservoir element associated with the negative electrode was filled over a thickness of 2 mm, i.e. a quantity of 4 g over the 20 cm^2 of electrode, with a hydrogel based on xanthan and carob extract having 3% of dry extract and containing 2% by weight of sodium salt of the pentasaccharide of formula (I) given above. The donor electrode assembly therefore contained 80 mg of pentasaccharide in a ratio of 4 mg/cm^2 for each of the animals which were treated.
In the passive electrode assembly, the positive electrode (back electrode) made of chlorided silver contained a quantity of silver chloride equivalent to 0.1 mAh/cm^2, and the reservoir element associated with this electrode consisted of the same hydrogel as the one present in the donor electrode assembly, but without pentasaccharide and instead holding 4% by weight of NaCl.
An electrical signal generator, connectable to the electrodes of each electrode assembly pair, made it possible to deliver between the said electrodes a pulsed electrical signal of controlled intensity, having a frequency of 25 kHz and a duty ratio equal to 50%. […]

[2] = Transdermic passage of sodium pentasaccharide salt by iontophoresis at constant voltage through nude rat skin (Example 1)
Experimental: Study of the transdermic passage of a sodium pentasaccharide salt by iontophoresis at constant voltage.
The operation was carried out in iontophoresis cells of identical structure. Each iontophoresis cell consisted of three coaxial adjacent cylindrical compartments having a cross-sectional area of 2 cm^2, namely, in this order, a donor compartment, a receiver compartment and a back-electrode compartment, these three compartments being each separated from the following one in leak-tight fashion by a piece of nude rat skin (OFA/hr/hr) used as a membrane for studying the transcutaneous diffusion. […] The receiver compartment, having a volume of 10 ml, held physiological saline solution supplemented with 500 ppm of NaN3 and was stirred using a magnetic bar. The back-electrode compartment, which was identical to the donor compartment, held 0.5 ml of a 2% by weight aqueous solution of sodium chloride as well as 500 ppm by weight of NaN3. At its opposite end from the receiver compartment, the donor compartment was equipped with a negative electrode. In the same way as the donor compartment, the back-electrode compartment was equipped with a positive electrode (back electrode).
The rat skin samples had had the subcutaneous tissue removed and had been preserved by freezing at -40° C. until they were mounted in the iontophoresis cell, with the dermic faces turned towards the receiver compartment, after they had been placed for 15 minutes in physiological saline solution supplemented with 500 ppm of NaN3.
For each of the tests which were carried out, four identical iontophoresis cells were started simultaneously. The active exchange surface area was 2 cm^2 for each skin.
A pulsed current generator made it possible to set up an electrical signal of the potentiostatic type between the electrodes of the four cells, mounted in parallel, with a peak voltage equal to 2.2 volts and a duty ratio of 50% (i.e. an average voltage of 1.1 volts) and a frequency of 25 kHz.
The pulsed current produced by the generator was applied for 6 hours, the electrode of the donor compartment of each cell being connected to the negative pole of the said generator, and the back electrodes to the positive pole.
At the end of the said time, an aliquot of the medium contained in the receiver compartment was withdrawn and the quantity of pentasaccharide that had passed through the skin separating the donor and the receiver compartments of each cell was determined by assay. A second sample was taken 24 hours after the start of each experiment, i.e. 18 hours after the electrical signal had stopped.
Five tests 1a to 1e were carried out as follows:
Test 1a: The negative electrode and the positive electrode consisted of a titanium film having a thickness equal to 10 μm. No voltage was applied to the electrodes, in order to determine the passive transcutaneous diffusion.
Test 1b: The negative electrode and the positive electrode consisted of a graphite sheet having a thickness of 60 μm.
Test 1c: The negative electrode and the positive electrode consisted of a titanium film having a thickness equal to 10 μm.
Test 1d to 1e: The negative electrode consisted of a silver film having a thickness of 15 μm, chlorided beforehand on one face in order to contain a silver chloride layer corresponding to 1.8 mAh/cm^2, whereas the positive electrode consisted of a silver film having a thickness of 15 μm, very slightly chlorided on one face (a quantity of silver chloride corresponding to 0.1 mAh/cm^2, the chlorided face of each electrode being on the side adjacent to the rat skin membrane.
In tests Ia to Id, the donor and the receiver compartments of each cell held a 0.06 molar buffer composition based on sodium monohydrogenphosphate and dihydrogenphosphate in equimolar quantities, so as to keep the pH in the said compartments at a value of about 7. In test 1e, no buffer was used.

[3] = test 3b: iontophoresis 0.20 mA/cm^2, 6 hours
[4] = test 3c: I.V. bolus 0.240 mg/kg
[5] = test 3d: subcutaneous 0.200 mg/kg

O=C(O)C1OC(OC2C(COS(=O)(=O)O)OC(OC3C(C(=O)O)OC(OC4C(COS(=O)(=O)O)OC(O)C(NS(=O)(=O)O)C4O)C(OS(=O)(=O)O)C3O)C(NS(=O)(=O)O)C2OS(=O)(=O)O)C(O)C(O)C1OC1OC(COS(=O)(=O)O)C(O)C(O)C1NS(=O)(=O)O (stereo not drawn) [pentasaccharide]
Plasma level at 0 minutes ([1]; test 3a: passive, no current): 0 "Golden standard" units of ant
Plasma level at 5 minutes ([1]; test 3a: passive, no current): 0 "Golden standard" units of ant
Plasma level at 15 minutes ([1]; test 3a: passive, no current): 0 "Golden standard" units of ant
Plasma level at 30 minutes ([1]; test 3a: passive, no current): 0 "Golden standard" units of ant
Plasma level at 1 hour ([1]; test 3a: passive, no current): 0 "Golden standard" units of ant
Plasma level at 2 hours ([1]; test 3a: passive, no current): 0 "Golden standard" units of ant
Plasma level at 4 hours ([1]; test 3a: passive, no current): 0 "Golden standard" units of ant
Plasma level at 6 hours ([1]; test 3a: passive, no current): 0 "Golden standard" units of ant
Plasma level at 8 hours ([1]; test 3a: passive, no current): 0 "Golden standard" units of ant
Plasma level at 12 hours ([1]; test 3a: passive, no current): 0 "Golden standard" units of ant
Plasma level at 24 hours ([1]; test 3a: passive, no current): 0 "Golden standard" units of ant
Plasma level at 30 hours ([1]; test 3a: passive, no current): 0 "Golden standard" units of ant
plasma levels, expressed in terms of antifactor Xa, compared with intravenous or subcutaneous injections ([1]; test 3b: iontophoresis): higher plasma levels
Plasma level at 0 minutes [1, 3]: 0 "Golden standard" units of ant
Plasma level at 15 minutes [1, 3]: 0.06 ± 0.04 "Golden standard" units of ant
Plasma level at 30 minutes [1, 3]: 0.15 ± 0.12 "Golden standard" units of ant
Plasma level at 1 hour [1, 3]: 0.31 ± 0.15 "Golden standard" units of ant
Plasma level at 2 hours [1, 3]: 0.45 ± 0.2 "Golden standard" units of ant
Plasma level at 4 hours [1, 3]: 0.64 ± 0.18 "Golden standard" units of ant
Plasma level at 6 hours [1, 3]: 0.74 ± 0.16 "Golden standard" units of ant
Plasma level at 8 hours [1, 3]: 0.52 ± 0.13 "Golden standard" units of ant
Plasma level at 12 hours [1, 3]: 0.4 ± 0.08 "Golden standard" units of ant
Plasma level at 24 hours [1, 3]: 0.11 ± 0.03 "Golden standard" units of ant
Plasma level at 30 hours [1, 3]: 0 "Golden standard" units of ant
bioavailability (active principle administered, normalized to quantity present in the electrodes) ([1]; test 3b, 80 mg engaged): about 9%
quantity of pentasaccharide administered per mAh ([1]; test 3b, for 1 mAh/cm^2): 292 μg/cm^2
quantity of pentasaccharide administered per cm^2 ([1]; test 3b, for 1.2 mAh/cm^2): 350 μg/cm^2
quantity of pentasaccharide actually administered by iontophoresis ([1]; test 3b, for the 20 cm^2, from areas under the curves): 7 ± 1.3 mg
Plasma level at 0 minutes [1, 4]: 0 "Golden standard" units of ant
Plasma level at 5 minutes [1, 4]: 1.04 ± 0.12 "Golden standard" units of ant
Plasma level at 15 minutes [1, 4]: 0.91 ± 0.13 "Golden standard" units of ant
Plasma level at 30 minutes [1, 4]: 0.65 ± 0.11 "Golden standard" units of ant
Plasma level at 1 hour [1, 4]: 0.53 ± 0.10 "Golden standard" units of ant
Plasma level at 2 hours [1, 4]: 0.30 ± 0.09 "Golden standard" units of ant
Plasma level at 4 hours [1, 4]: 0.29 ± 0.08 "Golden standard" units of ant
Plasma level at 6 hours [1, 4]: 0.22 ± 0.09 "Golden standard" units of ant
Plasma level at 8 hours [1, 4]: 0.17 ± 0.06 "Golden standard" units of ant
Plasma level at 12 hours [1, 4]: 0.07 ± 0.05 "Golden standard" units of ant
Plasma level at 24 hours [1, 4]: 0 "Golden standard" units of ant
Plasma level at 30 hours [1, 4]: 0 "Golden standard" units of ant
Plasma level at 0 minutes [1, 5]: 0 "Golden standard" units of ant
Plasma level at 15 minutes [1, 5]: 0.11 ± 0.04 "Golden standard" units of ant
Plasma level at 1 hour [1, 5]: 0.17 ± 0.01 "Golden standard" units of ant
Plasma level at 2 hours [1, 5]: 0.22 ± 0.04 "Golden standard" units of ant
Plasma level at 4 hours [1, 5]: 0.26 ± 0.06 "Golden standard" units of ant
Plasma level at 6 hours [1, 5]: 0.24 ± 0.01 "Golden standard" units of ant
Plasma level at 8 hours [1, 5]: 0.15 ± 0.07 "Golden standard" units of ant
Plasma level at 12 hours [1, 5]: 0.08 ± 0.03 "Golden standard" units of ant
Plasma level at 24 hours [1, 5]: 0 "Golden standard" units of ant
Plasma level at 30 hours [1, 5]: 0 "Golden standard" units of ant
quantities of pentasaccharide diffused into the receiver compartment by iontophoresis ([2]; Ag/AgCl negative electrodes (reversible)): increase very greatly
Fraction of active principle used (%) ([2]; at 6 hours, test 1a: titanium, 0 V (passive)): ~ zero
Fraction of active principle used (%) ([2]; at 6 hours, test 1b: graphite, 1.1 V): 0.1%
Fraction of active principle used (%) ([2]; at 6 hours, test 1c: titanium, 1.1 V): 0.08%
Fraction of active principle used (%) ([2]; at 6 hours, test 1e: Ag/AgCl, 1.1 V, no buffer): 2.8%
Fraction of active principle used (%) ([2]; at 6 hours, test 1d: Ag/AgCl, 1.1 V, buffer): 1.4%
Fraction of active principle used (%) ([2]; at 24 hours, test 1a: titanium, 0 V (passive)): ~ zero
Fraction of active principle used (%) ([2]; at 24 hours, test 1b: graphite, 1.1 V): 0.2%
Fraction of active principle used (%) ([2]; at 24 hours, test 1c: titanium, 1.1 V): 0.15%
Fraction of active principle used (%) ([2]; at 24 hours, test 1e: Ag/AgCl, 1.1 V, no buffer): 3.3%
Fraction of active principle used (%) ([2]; at 24 hours, test 1d: Ag/AgCl, 1.1 V, buffer): 1.5%
quantities of pentasaccharide diffused into the receiver compartment by iontophoresis ([2]; irreversible electrodes such as graphite or titanium): very small and similar to the passive transport
Antifactor activity Xa/ml at 6 hours ([2]; test 1a: titanium electrodes, 0 V (passive), buffer pH about 7): < 0.1 units per ml
Antifactor activity Xa/ml at 24 hours ([2]; test 1a: titanium, 0 V (passive)): 0.25 units per ml
Antifactor activity Xa/ml at 6 hours ([2]; test 1b: graphite electrode, average 1.1 V, buffer): 0.70 units per ml
Antifactor activity Xa/ml at 24 hours ([2]; test 1b: graphite, 1.1 V, 18 hours after current stopped): 1.13 units per ml
Antifactor activity Xa/ml at 6 hours ([2]; test 1c: titanium electrode, average 1.1 V, buffer): 0.50 units per ml
Antifactor activity Xa/ml at 24 hours ([2]; test 1c: titanium, 1.1 V, 18 hours after current stopped): 0.95 units per ml
Antifactor activity Xa/ml at 6 hours ([2]; test 1e: Ag/AgCl electrode, average 1.1 V, about 0.20 mA/cm^2, no buffer): 18.1 units per ml
Antifactor activity Xa/ml at 24 hours ([2]; test 1e: Ag/AgCl, 1.1 V, no buffer, 18 hours after current stopped): 21.4 units per ml
Antifactor activity Xa/ml at 6 hours ([2]; test 1d: Ag/AgCl electrode, average 1.1 V, about 0.20 mA/cm^2, buffer): 9.1 units per ml
Antifactor activity Xa/ml at 24 hours ([2]; test 1d: Ag/AgCl, 1.1 V, buffer, 18 hours after current stopped): 9.7 units per ml
